Article PMC5161434 (EBioMedicine, 2016)

Tests used:
[1] = Host toxicity in tumor-bearing mice; assay type: in vivo, BALB/c nude mice; conditions: 25 mg/kg daily, end of experiment; for organ weights (liver, kidneys, spleen, lung): versus vehicle
OVCAR3 cells [2] = assay: Western blotting of apoptosis, cell cycle and EMT proteins, OVCAR3; assay type: cell-based, human; conditions: 24 h; for cleavage of caspase 3 and PARP: ARS4 1, 5, 10 μM, DHA or melphalan 10 μM
OVCAR3 = assay: CCK-8 cell viability, OVCAR3 ovarian cancer cells; assay type: cell-based, human; conditions: for IC50: Homo sapiens, OVCAR-3, 48 h, read-out: IC50 (cell growth inhibition), OVCAR-3
A2780 = assay: CCK-8 cell viability, A2780 ovarian cancer cells; assay type: cell-based, human; conditions: for IC50: Homo sapiens, A2780, 48 h, read-out: IC50 (cell growth inhibition), A2780
A2780 cells [3] = assay: Western blotting of apoptosis, cell cycle and EMT proteins, A2780; assay type: cell-based, human; conditions: 24 h; for cleavage of caspase 3 and PARP: ARS4 1, 5, 10 μM, DHA or melphalan 10 μM
OVCAR3 cells [4] = assay: PI staining cell-cycle distribution, OVCAR3; assay type: cell-based, human; conditions: 24 h
A2780 cells [5] = assay: PI staining cell-cycle distribution, A2780; assay type: cell-based, human; conditions: 24 h

Compound	organ weights (liver, kidneys, spleen, lung) [1]	EMT phenotype (E-cadherin, Vimentin, Snail, Slug expression) (OVCAR3 cells [2])	cleavage of caspase 3 and PARP (OVCAR3 cells [2])	IC50 (OVCAR3) [µM]	IC50 (A2780) [µM]	EMT phenotype (E-cadherin, Vimentin, Snail, Slug expression) (A2780 cells [3])	cleavage of caspase 3 and PARP (A2780 cells [3])	effect on cell-cycle progression (OVCAR3 cells [4])	histological findings (H&E; liver, kidneys, spleen, lung) [1]	effect on cell-cycle progression (A2780 cells [5])	growth of cells after 12 h of exposure (CCK8) (OVCAR3; OVCAR3, 12 h, data not shown)	growth of cells after 12 h of exposure (CCK8) (A2780; A2780, 12 h, data not shown)
N.N.O=C([O-])C1(C(=O)[O-])CCC1.[Pt+2] [Carboplatin]	loss	–	–	–	–	–	–	–	–	–	–	–
N[C@@H](Cc1ccc(N(CCCl)CCCl)cc1)C(=O)O [Compound 3, melphalan]	Severe decreases in organ weight	no obvious effect	less effect	11.6	23.2	no obvious effect	less effect	arrested cells in the S phase	substantial necrosis of liver and spleen parenchymal cells	arrested cells in the S phase	–	–
C[C@H]1[C@@H](O)O[C@@H]2O[C@@]3(C)CC[C@H]4[C@H](C)CC[C@@H]1[C@@]24OO3 [Compound 1, Dihydroartemisinin]	–	–	less effect	5.65	4.75	–	less effect	modest arrest in the G0/G1 phase	–	modest arrest in the G0/G1 phase	no apparent inhibition of growth	no apparent inhibition of growth
